In brackets after ≈: the same amount, converted by molar mass.
Experiments:
Assay type in all cases: functional
Streptococcus pyogenes [1] = experiment: Antibacterial activity against erythromycin-susceptible Streptococcus pyogenes 1 after 24 hrs by broth dilution assay; settings: Streptococcus pyogenes, 1, 24 h
Escherichia coli = experiment: Antibacterial activity against penicillin-susceptible Escherichia coli ATCC 25922 after 24 hrs by broth dilution assay; settings: ATCC 25922, 24 h
Pseudomonas aeruginosa = experiment: Antibacterial activity against penicillin-susceptible Pseudomonas aeruginosa ATCC 27853 after 24 hrs by broth dilution assay; settings: ATCC 27853, 24 h
Bacillus subtilis = experiment: Antibacterial activity against penicillin-susceptible Bacillus subtilis ATCC 9372 after 24 hrs by broth dilution assay; settings: ATCC 9372, 24 h
Staphylococcus aureus [2] = experiment: Antibacterial activity against erythromycin-susceptible Staphylococcus aureus ATCC 25923 after 24 hrs by broth dilution assay; settings: ATCC 25923, 24 h
Staphylococcus aureus [3] = experiment: Antibacterial activity against […] Staphylococcus aureus ATCC 29213 after 24 hrs by broth dilution assay; settings: ATCC 29213, 24 h
Staphylococcus aureus [4] = experiment: Antibacterial activity against penicillin-resistant Staphylococcus aureus ATCC 31007 after 24 hrs by broth dilution assay; settings: ATCC 31007, 24 h
Streptococcus pyogenes [5] = experiment: Antibacterial activity against erythromycin-resistant Streptococcus pyogenes 2 after 24 hrs by broth dilution assay; settings: Streptococcus pyogenes, 2, 24 h
Streptococcus pneumoniae [6] = experiment: Antibacterial activity against erythromycin-resistant Streptococcus pneumoniae A22072 expressing mefA gene after 24 hrs by broth dilution assay; settings: A22072, 24 h
Streptococcus pneumoniae [7] = experiment: Antibacterial activity against erythromycin-resistant Streptococcus pneumoniae B1 expressing ermB gene after 24 hrs by broth dilution assay; settings: B1, 24 h
Streptococcus pneumoniae [8] = experiment: Antibacterial activity against erythromycin-resistant Streptococcus pneumoniae AB11 expressing ermB and mefA genes after 24 hrs by broth dilution assay; settings: AB11, 24 h

## C#CCNC(=O)O[C@H]1[C@H](C)[C@@H](O[C@@H]2O[C@H](C)C[C@H](N(C)C)[C@H]2O)[C@](C)(OC)C[C@@H](C)/C(=N/OCc2ccccc2Cl)[C@H](C)[C@@H](O)[C@](C)(O)[C@@H](CC)OC(=O)[C@@H]1C
Streptococcus pyogenes [1]
  MIC: 4 µg/mL (≈ 4.94 µM)
Escherichia coli
  MIC: 128 µg/mL (≈ 158 µM)
Pseudomonas aeruginosa
  MIC: 128 µg/mL (≈ 158 µM)
Bacillus subtilis
  MIC: 2 µg/mL (≈ 2.47 µM)

## CC[C@H]1OC(=O)[C@H](C)[C@@H](OC(=O)NC2CCCCC2)[C@H](C)[C@@H](O[C@@H]2O[C@H](C)C[C@H](N(C)C)[C@H]2O)[C@](C)(OC)C[C@@H](C)/C(=N/OCc2ccccc2Cl)[C@H](C)[C@@H](O)[C@]1(C)O
Streptococcus pyogenes [1]
  MIC: 2 µg/mL (≈ 2.34 µM)
Staphylococcus aureus [2]
  MIC: 16 µg/mL (≈ 18.7 µM)
Escherichia coli
  MIC: 128 µg/mL (≈ 150 µM)
Pseudomonas aeruginosa
  MIC: 128 µg/mL (≈ 150 µM)
Bacillus subtilis
  MIC: 4 µg/mL (≈ 4.68 µM)
Staphylococcus aureus [3]
  MIC: 128 µg/mL (≈ 150 µM)
Staphylococcus aureus [4]
  MIC: 8 µg/mL (≈ 9.36 µM)
Streptococcus pyogenes [5]
  MIC: 16 µg/mL (≈ 18.7 µM)
Streptococcus pneumoniae [6]
  MIC: 1 µg/mL (≈ 1.17 µM)
Streptococcus pneumoniae [7]
  MIC: 128 µg/mL (≈ 150 µM)
Streptococcus pneumoniae [8]
  MIC: 128 µg/mL (≈ 150 µM)

## CC[C@H]1OC(=O)[C@H](C)[C@@H](OC(=O)NCCc2ccc(F)cc2)[C@H](C)[C@@H](O[C@@H]2O[C@H](C)C[C@H](N(C)C)[C@H]2O)[C@](C)(OC)C[C@@H](C)/C(=N/OCc2ccccc2Cl)[C@H](C)[C@@H](O)[C@]1(C)O
Streptococcus pyogenes [1]
  MIC: 2 µg/mL (≈ 2.24 µM)
Staphylococcus aureus [2]
  MIC: 4 µg/mL (≈ 4.47 µM)
Escherichia coli
  MIC: 128 µg/mL (≈ 143 µM)
Pseudomonas aeruginosa
  MIC: 128 µg/mL (≈ 143 µM)
Bacillus subtilis
  MIC: 2 µg/mL (≈ 2.24 µM)
Staphylococcus aureus [3]
  MIC: 128 µg/mL (≈ 143 µM)
Staphylococcus aureus [4]
  MIC: 4 µg/mL (≈ 4.47 µM)
Streptococcus pyogenes [5]
  MIC: 8 µg/mL (≈ 8.94 µM)
Streptococcus pneumoniae [6]
  MIC: 1 µg/mL (≈ 1.12 µM)
Streptococcus pneumoniae [7]
  MIC: 128 µg/mL (≈ 143 µM)
Streptococcus pneumoniae [8]
  MIC: 128 µg/mL (≈ 143 µM)

## CC[C@H]1OC(=O)[C@H](C)[C@@H](OC(=O)NCCc2ccc(OC)cc2)[C@H](C)[C@@H](O[C@@H]2O[C@H](C)C[C@H](N(C)C)[C@H]2O)[C@](C)(OC)C[C@@H](C)/C(=N/OCc2ccccc2Cl)[C@H](C)[C@@H](O)[C@]1(C)O
Streptococcus pyogenes [1]
  MIC: 2 µg/mL (≈ 2.21 µM)
Staphylococcus aureus [2]
  MIC: 16 µg/mL (≈ 17.6 µM)
Escherichia coli
  MIC: 128 µg/mL (≈ 141 µM)
Pseudomonas aeruginosa
  MIC: 128 µg/mL (≈ 141 µM)
Bacillus subtilis
  MIC: 2 µg/mL (≈ 2.21 µM)
Staphylococcus aureus [3]
  MIC: 128 µg/mL (≈ 141 µM)
Staphylococcus aureus [4]
  MIC: 4 µg/mL (≈ 4.41 µM)
Streptococcus pyogenes [5]
  MIC: 8 µg/mL (≈ 8.82 µM)
Streptococcus pneumoniae [6]
  MIC: 1 µg/mL (≈ 1.1 µM)
Streptococcus pneumoniae [7]
  MIC: 128 µg/mL (≈ 141 µM)
Streptococcus pneumoniae [8]
  MIC: 128 µg/mL (≈ 141 µM)

## CC[C@H]1OC(=O)[C@H](C)[C@@H](OC(=O)NCCc2ccccc2)[C@H](C)[C@@H](O[C@@H]2O[C@H](C)C[C@H](N(C)C)[C@H]2O)[C@](C)(OC)C[C@@H](C)/C(=N/OCc2ccccc2Cl)[C@H](C)[C@@H](O)[C@]1(C)O
Streptococcus pyogenes [1]
  MIC: 8 µg/mL (≈ 9.13 µM)
Staphylococcus aureus [2]
  MIC: 16 µg/mL (≈ 18.3 µM)
Escherichia coli
  MIC: 128 µg/mL (≈ 146 µM)
Pseudomonas aeruginosa
  MIC: 128 µg/mL (≈ 146 µM)
Bacillus subtilis
  MIC: 8 µg/mL (≈ 9.13 µM)
Staphylococcus aureus [3]
  MIC: 128 µg/mL (≈ 146 µM)
Staphylococcus aureus [4]
  MIC: 8 µg/mL (≈ 9.13 µM)
Streptococcus pyogenes [5]
  MIC: 16 µg/mL (≈ 18.3 µM)
Streptococcus pneumoniae [6]
  MIC: 2 µg/mL (≈ 2.28 µM)
Streptococcus pneumoniae [7]
  MIC: 128 µg/mL (≈ 146 µM)
Streptococcus pneumoniae [8]
  MIC: 128 µg/mL (≈ 146 µM)

## CCCCCCNC(=O)O[C@H]1[C@H](C)[C@@H](O[C@@H]2O[C@H](C)C[C@H](N(C)C)[C@H]2O)[C@](C)(OC)C[C@@H](C)/C(=N/OCc2ccccc2Cl)[C@H](C)[C@@H](O)[C@](C)(O)[C@@H](CC)OC(=O)[C@@H]1C
Streptococcus pyogenes [1]
  MIC: 2 µg/mL (≈ 2.33 µM)
Staphylococcus aureus [2]
  MIC: 16 µg/mL (≈ 18.7 µM)
Escherichia coli
  MIC: 128 µg/mL (≈ 149 µM)
Pseudomonas aeruginosa
  MIC: 128 µg/mL (≈ 149 µM)
Bacillus subtilis
  MIC: 2 µg/mL (≈ 2.33 µM)
Staphylococcus aureus [3]
  MIC: 128 µg/mL (≈ 149 µM)
Staphylococcus aureus [4]
  MIC: 4 µg/mL (≈ 4.67 µM)
Streptococcus pyogenes [5]
  MIC: 8 µg/mL (≈ 9.34 µM)
Streptococcus pneumoniae [6]
  MIC: 1 µg/mL (≈ 1.17 µM)
Streptococcus pneumoniae [7]
  MIC: 128 µg/mL (≈ 149 µM)
Streptococcus pneumoniae [8]
  MIC: 128 µg/mL (≈ 149 µM)

## CC[C@H]1OC(=O)[C@H](C)[C@@H](OC(=O)NCc2ccc(F)cc2)[C@H](C)[C@@H](O[C@@H]2O[C@H](C)C[C@H](N(C)C)[C@H]2O)[C@](C)(OC)C[C@@H](C)/C(=N/OCc2ccccc2Cl)[C@H](C)[C@@H](O)[C@]1(C)O
Streptococcus pyogenes [1]
  MIC: 2 µg/mL (≈ 2.27 µM)
Staphylococcus aureus [2]
  MIC: 4 µg/mL (≈ 4.54 µM)
Escherichia coli
  MIC: 128 µg/mL (≈ 145 µM)
Pseudomonas aeruginosa
  MIC: 128 µg/mL (≈ 145 µM)
Bacillus subtilis
  MIC: 2 µg/mL (≈ 2.27 µM)
Staphylococcus aureus [3]
  MIC: 128 µg/mL (≈ 145 µM)
Staphylococcus aureus [4]
  MIC: 4 µg/mL (≈ 4.54 µM)
Streptococcus pyogenes [5]
  MIC: 8 µg/mL (≈ 9.09 µM)
Streptococcus pneumoniae [6]
  MIC: 1 µg/mL (≈ 1.14 µM)
Streptococcus pneumoniae [7]
  MIC: 128 µg/mL (≈ 145 µM)
Streptococcus pneumoniae [8]
  MIC: 128 µg/mL (≈ 145 µM)

## CC[C@H]1OC(=O)[C@H](C)[C@@H](OC(=O)NCCc2ccc(OC)c(OC)c2)[C@H](C)[C@@H](O[C@@H]2O[C@H](C)C[C@H](N(C)C)[C@H]2O)[C@](C)(OC)C[C@@H](C)/C(=N/OCc2ccccc2Cl)[C@H](C)[C@@H](O)[C@]1(C)O
Streptococcus pyogenes [1]
  MIC: 1 µg/mL (≈ 1.07 µM)
Staphylococcus aureus [2]
  MIC: 8 µg/mL (≈ 8.54 µM)
Escherichia coli
  MIC: 128 µg/mL (≈ 137 µM)
Pseudomonas aeruginosa
  MIC: 128 µg/mL (≈ 137 µM)
Bacillus subtilis
  MIC: 4 µg/mL (≈ 4.27 µM)
Staphylococcus aureus [3]
  MIC: 128 µg/mL (≈ 137 µM)
Staphylococcus aureus [4]
  MIC: 8 µg/mL (≈ 8.54 µM)
Streptococcus pyogenes [5]
  MIC: 16 µg/mL (≈ 17.1 µM)
Streptococcus pneumoniae [6]
  MIC: 1 µg/mL (≈ 1.07 µM)
Streptococcus pneumoniae [7]
  MIC: 128 µg/mL (≈ 137 µM)
Streptococcus pneumoniae [8]
  MIC: 128 µg/mL (≈ 137 µM)

## CC[C@H]1OC(=O)[C@H](C)[C@@H](OC(=O)NCc2ccco2)[C@H](C)[C@@H](O[C@@H]2O[C@H](C)C[C@H](N(C)C)[C@H]2O)[C@](C)(OC)C[C@@H](C)/C(=N/OCc2ccccc2Cl)[C@H](C)[C@@H](O)[C@]1(C)O
Streptococcus pyogenes [1]
  MIC: 4 µg/mL (≈ 4.69 µM)
Staphylococcus aureus [2]
  MIC: 16 µg/mL (≈ 18.8 µM)
Escherichia coli
  MIC: 128 µg/mL (≈ 150 µM)
Pseudomonas aeruginosa
  MIC: 128 µg/mL (≈ 150 µM)
Bacillus subtilis
  MIC: 4 µg/mL (≈ 4.69 µM)
Staphylococcus aureus [3]
  MIC: 128 µg/mL (≈ 150 µM)
Staphylococcus aureus [4]
  MIC: 8 µg/mL (≈ 9.38 µM)
Streptococcus pyogenes [5]
  MIC: 16 µg/mL (≈ 18.8 µM)
Streptococcus pneumoniae [6]
  MIC: 1 µg/mL (≈ 1.17 µM)
Streptococcus pneumoniae [7]
  MIC: 128 µg/mL (≈ 150 µM)
Streptococcus pneumoniae [8]
  MIC: 128 µg/mL (≈ 150 µM)

Source: ChEMBL document CHEMBL4261593, “Synthesis and antibacterial activity of novel 3-O-arylalkylcarbamoyl-3-O-descladinosyl-9-O-(2-chlorobenzyl)oxime clarithromycin derivatives” (2018)
